Values quoted from earlier work as cited in patent US7582301B1, “Long-lasting antiviral fusion inhibitor peptide conjugates comprising albumin and human immunodeficiency virus (HIV) peptides” (Conjuchem Biotechnologies, Inc., priority 2000, dated 2009).

System: respiratory syncytial virus (RSV)
Details: RSV-infected and uninfected Hep-2 cells

| Substance | concentration inhibiting fusion and syncytia formation |
| --- | --- |
| IALLSTNKAVVSLSNGVSVLTSKVLDLKNYIDK [SEQ ID NO:29, anti-RSV peptide from the F1 region of RSV] | less than 50 μg/ml |

Same assay, conditions: result in words; RSV-infected and uninfected Hep-2 cells

| Substance | inhibition of viral infection of RSV, including fusion and syncytia formation |
| --- | --- |
| IALLSTNKAVVSLSNGVSVLTSKVLDLKNYIDK [SEQ ID NO:29, anti-RSV peptide from the F1 region of RSV] | inhibits viral infection |
| TSVITIELSNIKENKCNGAKVKLIKQELDKYKN (TSVITIELSNIKENKCNGDAKVKLIKQELDKYKN) [SEQ ID NO:15, anti-RSV peptide from the F2 region of RSV] | inhibits viral infection |
| VITIELSNIKENKCNGAKVKLIKQELDKYKNAV (VITIELSNIKENKCNGDAKVKLIKQELDKYKNAV) [SEQ ID NO:16, anti-RSV peptide from the F2 region of RSV] | inhibits viral infection |
| YTSVITIELSNIKENKCNGAKVKLIKQELDKYK (YTSVITIELSNIKENKCNGDAKVKLIKQELDKYK) [SEQ ID NO:14, anti-RSV peptide from the F2 region of RSV] | inhibits viral infection |

System: HPIV-3
Details: HPIV-3-infected Hep2 cells and uninfected CV-1W cells

| Substance | concentration inhibiting fusion and syncytia formation |
| --- | --- |
| NSVALDPIDISIELNKAKSDLEESKEWIRRSNQKL (NNSVALDPIDISIELNKAKSDLEESKEWIRRSNQK) [SEQ ID NO:35, anti-HPIV-3 peptide, DP178-like] | less than 1 μg/ml |

Same assay, conditions: result in words; HPIV3-infected Hep2 cells and uninfected CV-1W cells

| Substance | inhibition of viral infection of HPIV3, including fusion and syncytia formation |
| --- | --- |
| ALDPIDISIELNKAKSDLEESKEWIRRSNQKLDSI (VALDPIDISIELNKAKSDLEESKEWIRRSNQKLDS) [SEQ ID NO:38, anti-HPIV-3 peptide, DP178-like] | inhibits viral infection |
| DPIDISIELNKAKSDLEESKEWIRRSNQKLDSIGN (LDPIDISIELNKAKSDLEESKEWIRRSNQKLDSIG) [SEQ ID NO:40, anti-HPIV-3 peptide, DP178-like] | inhibits viral infection |
| IDISIELNKAKSDLEESKEWIRRSNQKLDSIGNWH (PIDISIELNKAKSDLEESKEWIRRSNQKLDSIGNW) [SEQ ID NO:42, anti-HPIV-3 peptide, DP178-like] | inhibits viral infection |
| LDPIDISIELNKAKSDLEESKEWIRRSNQKLDSIG (ALDPIDISIELNKAKSDLEESKEWIRRSNQKLDSI) [SEQ ID NO:39, anti-HPIV-3 peptide, DP178-like] | inhibits viral infection |
| NSVALDPIDISIELNKAKSDLEESKEWIRRSNQKL (NNSVALDPIDISIELNKAKSDLEESKEWIRRSNQK) [SEQ ID NO:35, anti-HPIV-3 peptide, DP178-like] | inhibits viral infection |
| PIDISIELNKAKSDLEESKEWIRRSNQKLDSIGNW (DPIDISIELNKAKSDLEESKEWIRRSNQKLDSIGN) [SEQ ID NO:41, anti-HPIV-3 peptide, DP178-like] | inhibits viral infection |
| RSDIEKLKEAIRDTNKAVQSVQSSIGNLIVAIKSV [SEQ ID NO:58] | inhibits viral infection |
| VEAKQARSDIEKLKEAIRDTNKAVQSVQSSIGNLI [SEQ ID NO:52] | inhibits viral infection |

System: measles virus (MeV)
Details: result in words; MeV-infected and uninfected Vero cells

| Substance | inhibition of viral infection of MeV, including fusion and syncytia formation |
| --- | --- |
| HRIDLGPPISLERLDVGTNLGNAIAKLEAKELLE [SEQ ID NO:77] | inhibits viral infection |
| IDLGPPISLERLDVGTNLGNAIAKLEAKELLESS [SEQ ID NO:79] | inhibits viral infection |
| PISLERLDVGTNLGNAIAKLEAKELLESSDQILR [SEQ ID NO:84] | inhibits viral infection |

System: simian immunodeficiency virus (SIV)
Details: as crude peptides; result in words

| Substance | anti-SIV activity |
| --- | --- |
| DFLEENITALLEEAQIQQEKNMYELQKLNSWDVFG [SEQ ID NO:72] | potent antiviral activity |
| ERKVDFLEENITALLEEAQIQQEKNMYELQKLNSW [SEQ ID NO:68] | potent antiviral activity |
| EWERKVDFLEENITALLEEAQIQQEKNMYELQKLN [SEQ ID NO:66] | potent antiviral activity |
| FLEENITALLEEAQIQQEKNMYELQKLNSWDVFGN [SEQ ID NO:73] | potent antiviral activity |
| KVDFLEENITALLEEAQIQQEKNMYELQKLNSWDV [SEQ ID NO:70] | potent antiviral activity |
| QEWERKVDFLEENITALLEEAQIQQEKNMYELQKL [SEQ ID NO:65] | potent antiviral activity |
| RKVDFLEENITALLEEAQIQQEKNMYELQKLNSWD [SEQ ID NO:69] | potent antiviral activity |
| VDFLEENITALLEEAQIQQEKNMYELQKLNSWDVF [SEQ ID NO:71] | potent antiviral activity |
| WERKVDFLEENITALLEEAQIQQEKNMYELQKLNS [SEQ ID NO:67] | potent antiviral activity |
| WQEWERKVDFLEENITALLEEAQIQQEKNMYELQK [SEQ ID NO:64] | potent antiviral activity |

System: not given
Details: result in words

| Substance | anti-viral activity |
| --- | --- |
| SEQ ID NO:8: analog peptide demonstrated to exhibit anti-viral activity; sequence not printed in the text (CGGNNLLRAIEAQQHLLQLTVWGIKQLQARILAVERYLKDQ) | exhibit anti-viral activity |

System: HIV-1
Details: result in words; listed as DP-107

| Substance | anti-HIV-1 activity (inhibition of HIV-1 infection and fusion) |
| --- | --- |
| NNLLRAIEAQQHLLQLTVWQIKQLQARILAVERYLKDQ [DP107] | potent inhibitors |

Same assay, conditions: result in words; listed as DP-178

| Substance | anti-HIV-1 activity (inhibition of HIV-1 infection and fusion) |
| --- | --- |
| enfuvirtide | potent inhibitors |
